ChEMBL document CHEMBL1201862, “PubChem BioAssay data set” (2004)
“And” between values parts separate entries of the source, which are not always exact repeats. Equal values may be shown once. The source made the active and inactive calls.

Key:
[1] = system: HEK293; assay: NOD2 signaling inhibitors in MDP-stimulated cells, cell-based, uHTS, luminescence (AID 2001); format: functional; conditions: Homo sapiens
[2] = system: HEK293; assay: cells; format: functional, cell-based; conditions: Homo sapiens
[3] = system: HEK293; assay: cells; conditions: Homo sapiens
[4] = system: HEK293; assay: NOD1 signaling inhibitors, primary screen, cell-based, luminescence, uHTS (AID 1578); format: functional; conditions: Homo sapiens
[5] = target: Tumor necrosis factor (Homo sapiens, UniProt P01375); assay: TNFa-triggered NF-kB activation inhibitors, SAR follow-up, cell-based, revised (AID 2337); format: functional
Sequence of Tumor necrosis factor (P01375 whole entry, the tested form may be a part): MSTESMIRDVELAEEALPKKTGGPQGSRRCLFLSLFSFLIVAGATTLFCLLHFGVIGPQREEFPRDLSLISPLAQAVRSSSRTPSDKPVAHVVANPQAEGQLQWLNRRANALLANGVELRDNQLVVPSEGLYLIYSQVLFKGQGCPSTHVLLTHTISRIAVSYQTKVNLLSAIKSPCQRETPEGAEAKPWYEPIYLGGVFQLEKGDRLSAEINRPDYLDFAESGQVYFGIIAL

[6] = target: T1, Nucleotide-binding oligomerization domain-containing protein 1 (Homo sapiens, UniProt Q9Y239); assay: NOD1 signaling inhibitors, SAR follow-up, revised (AID 2333); format: functional
T1 sequence (Q9Y239 whole entry): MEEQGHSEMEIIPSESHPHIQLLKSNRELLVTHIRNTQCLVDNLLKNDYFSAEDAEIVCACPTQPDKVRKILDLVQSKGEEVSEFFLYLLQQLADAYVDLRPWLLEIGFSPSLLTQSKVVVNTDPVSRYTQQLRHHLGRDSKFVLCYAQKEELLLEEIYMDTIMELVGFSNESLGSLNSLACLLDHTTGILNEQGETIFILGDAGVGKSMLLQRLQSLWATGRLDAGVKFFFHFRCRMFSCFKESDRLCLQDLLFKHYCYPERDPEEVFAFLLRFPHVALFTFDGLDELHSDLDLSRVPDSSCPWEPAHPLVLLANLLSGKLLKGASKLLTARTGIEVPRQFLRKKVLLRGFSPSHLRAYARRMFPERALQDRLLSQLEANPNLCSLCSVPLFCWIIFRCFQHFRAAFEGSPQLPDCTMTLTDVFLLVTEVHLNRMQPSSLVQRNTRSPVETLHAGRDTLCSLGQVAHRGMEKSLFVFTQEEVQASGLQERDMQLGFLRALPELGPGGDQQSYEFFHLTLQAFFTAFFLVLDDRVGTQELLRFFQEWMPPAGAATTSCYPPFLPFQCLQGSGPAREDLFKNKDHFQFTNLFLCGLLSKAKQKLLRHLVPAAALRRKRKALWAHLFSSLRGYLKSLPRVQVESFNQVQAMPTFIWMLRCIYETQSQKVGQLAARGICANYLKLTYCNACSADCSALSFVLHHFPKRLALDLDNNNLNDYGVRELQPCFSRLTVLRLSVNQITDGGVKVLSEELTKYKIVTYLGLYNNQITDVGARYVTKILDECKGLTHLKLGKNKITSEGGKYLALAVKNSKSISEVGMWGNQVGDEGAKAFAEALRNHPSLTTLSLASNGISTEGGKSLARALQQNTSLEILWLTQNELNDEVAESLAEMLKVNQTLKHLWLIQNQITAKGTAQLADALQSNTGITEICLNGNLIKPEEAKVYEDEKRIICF

[7] = system: HEK293; assay: cells; format: functional, cell-based; conditions: Homo sapiens; remark: listed apart in the source
[8] = target: T2, Endoribonuclease toxin MazF (Escherichia coli K-12, UniProt P0AE70); assay: MazF toxin RNase activators, dose response, biochemical, fluorescence, single-stranded RNA substrate, uHTS hits (AID 588481); format: functional
T2 sequence (P0AE70 whole entry): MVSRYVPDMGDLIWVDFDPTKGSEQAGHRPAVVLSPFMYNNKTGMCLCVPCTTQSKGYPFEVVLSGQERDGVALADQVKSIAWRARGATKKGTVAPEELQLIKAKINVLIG

[9] = target: T2, Endoribonuclease toxin MazF; assay: fluorescent RNA oligo signal without MazF, dose response, counter-screen for MazEF activator project, biochemical, fluorescence, single-stranded RNase substrate (AID 588502); format: functional
[10] = NIH-3T3 fibroblast cytotoxicity, dose response, cytotoxicity control, cell-based, fluorescence, Alamar Blue, secondary assay (AID 2327); format: functional;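 also: NIH-3T3 mouse fibroblasts cultured with fluconazole at 8 µg/mL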
[11] = target: Serine/threonine-protein phosphatase (Candida dubliniensis (strain CD36 / CBS 7987 / NCPF 3949 / NRRLY-17841) (Yeast), UniProt B9W6M3); assay: calcineurin pathway inhibitors in yeast reporter, dose response, S. cerevisiae, CDRE-lacZ, luminescence, secondary (AID 2388); format: functional, cell-based;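 also: yeast reporter cells carrying a calcineurin-responsive lacZ construct stimulated with calcium chloride; luminescent beta-galactosidase reporter signal in whole cells rather than isolated phosphatase activity; potency for inhibition where a drop in reporter signal means calcineurin blockade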
Sequence of Serine/threonine-protein phosphatase (B9W6M3 whole entry): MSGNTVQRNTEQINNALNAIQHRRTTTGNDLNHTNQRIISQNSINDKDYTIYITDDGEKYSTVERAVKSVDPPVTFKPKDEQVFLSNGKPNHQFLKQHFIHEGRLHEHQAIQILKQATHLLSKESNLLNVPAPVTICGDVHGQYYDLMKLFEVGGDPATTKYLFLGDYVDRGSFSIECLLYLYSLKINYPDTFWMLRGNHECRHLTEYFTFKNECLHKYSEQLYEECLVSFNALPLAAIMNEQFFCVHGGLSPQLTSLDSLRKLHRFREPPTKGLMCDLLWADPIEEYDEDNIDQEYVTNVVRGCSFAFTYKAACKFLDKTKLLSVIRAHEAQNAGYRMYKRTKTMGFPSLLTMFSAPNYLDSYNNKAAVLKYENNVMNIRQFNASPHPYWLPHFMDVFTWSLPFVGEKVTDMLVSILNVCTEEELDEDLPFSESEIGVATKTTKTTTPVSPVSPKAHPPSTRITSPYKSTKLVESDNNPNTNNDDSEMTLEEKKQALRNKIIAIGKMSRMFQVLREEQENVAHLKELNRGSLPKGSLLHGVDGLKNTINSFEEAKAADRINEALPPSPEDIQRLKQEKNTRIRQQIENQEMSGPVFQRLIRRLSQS

[12] = system: INS1; assay: beta cell apoptosis inhibitors, cytokine rescue, dose response, luminescence, retest (AID 449756); format: functional, cell-based; conditions: Rattus norvegicus;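 also: cell death triggered by IL-1 beta plus TNF-alpha plus IFN-gamma mixture; protective hits raise ATP signal compared with cytokine alone wells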
[13] = C. albicans growth with fluconazole, confirmation, fluorescence, retest (AID 2467); format: functional, cell-based
[14] = target: ATP-dependent molecular chaperone HSP82 (Candida albicans (strain WO-1) (Yeast), UniProt C4YTQ8); assay: loss of DOC-induced GRE-beta-galactosidase reporter signal, dose response, Hsp90 inhibitor project, S. cerevisiae, luminescence (AID 2400); format: functional, cell-based;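 also: beta-galactosidase luminescence from glucocorticoid response element reporter as proxy for Hsp90 function; inhibitor potency where signal loss means Hsp90 inhibition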
Sequence of ATP-dependent molecular chaperone HSP82 (C4YTQ8 whole entry): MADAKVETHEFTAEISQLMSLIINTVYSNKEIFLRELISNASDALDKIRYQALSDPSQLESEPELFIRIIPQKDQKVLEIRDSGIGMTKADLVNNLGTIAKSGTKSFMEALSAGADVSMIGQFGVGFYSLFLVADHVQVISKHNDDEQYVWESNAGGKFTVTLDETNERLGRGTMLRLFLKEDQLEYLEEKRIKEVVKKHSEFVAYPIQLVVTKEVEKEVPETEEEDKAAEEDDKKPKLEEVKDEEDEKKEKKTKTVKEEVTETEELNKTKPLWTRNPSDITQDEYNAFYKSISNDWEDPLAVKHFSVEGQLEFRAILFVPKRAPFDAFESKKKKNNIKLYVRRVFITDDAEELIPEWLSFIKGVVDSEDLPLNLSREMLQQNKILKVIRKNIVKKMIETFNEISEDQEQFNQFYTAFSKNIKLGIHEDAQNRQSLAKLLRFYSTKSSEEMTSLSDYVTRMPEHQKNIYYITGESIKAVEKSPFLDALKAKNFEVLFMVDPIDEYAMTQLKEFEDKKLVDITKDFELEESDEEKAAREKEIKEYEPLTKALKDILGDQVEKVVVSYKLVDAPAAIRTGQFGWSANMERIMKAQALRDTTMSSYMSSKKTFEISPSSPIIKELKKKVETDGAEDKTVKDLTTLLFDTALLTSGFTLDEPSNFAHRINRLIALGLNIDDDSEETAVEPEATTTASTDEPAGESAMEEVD

[15] = target: T3, Nuclear receptor subfamily 0 group B member 1 (Homo sapiens, UniProt P51843); assay: Luminescence-based cell-based high throughput dose response assay for inhibitors of the orphan nuclear receptor subfamily 0, group B, member 1 (DAX1; NR0B1). [Related pubchem assays (depositor defined):AID504766, AID504790]; format: functional
T3 sequence (P51843 whole entry): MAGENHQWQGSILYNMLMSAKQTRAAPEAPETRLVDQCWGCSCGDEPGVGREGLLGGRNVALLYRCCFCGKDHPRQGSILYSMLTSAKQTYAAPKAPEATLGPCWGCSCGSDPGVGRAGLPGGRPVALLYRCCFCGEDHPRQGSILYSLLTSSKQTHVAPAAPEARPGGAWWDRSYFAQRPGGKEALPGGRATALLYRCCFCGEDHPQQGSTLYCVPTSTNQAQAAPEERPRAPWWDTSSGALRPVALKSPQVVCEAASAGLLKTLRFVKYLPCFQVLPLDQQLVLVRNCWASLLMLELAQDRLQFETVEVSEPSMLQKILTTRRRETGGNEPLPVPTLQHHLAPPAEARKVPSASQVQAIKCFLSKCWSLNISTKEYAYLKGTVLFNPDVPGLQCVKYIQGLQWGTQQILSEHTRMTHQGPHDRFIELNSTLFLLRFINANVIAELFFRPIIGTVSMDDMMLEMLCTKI

[16] = system: HEK293; assay: cells; format: functional, cell-based; conditions: Homo sapiens; remark: listed apart in the source
[17] = target: DNA dC->dU-editing enzyme APOBEC-3A (Homo sapiens, UniProt P31941); assay: APOBEC3A DNA deaminase inhibitors, dose response, biochemical (AID 504722); format: functional
Sequence of DNA dC->dU-editing enzyme APOBEC-3A (P31941 whole entry): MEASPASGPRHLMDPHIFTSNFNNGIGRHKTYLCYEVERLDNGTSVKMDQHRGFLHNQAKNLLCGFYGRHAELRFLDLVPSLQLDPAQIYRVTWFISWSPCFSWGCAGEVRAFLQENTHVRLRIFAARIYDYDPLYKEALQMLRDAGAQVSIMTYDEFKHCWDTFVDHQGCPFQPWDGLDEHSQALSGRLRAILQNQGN

[18] = target: T4, Tyrosine-protein phosphatase non-receptor type 7 (Homo sapiens, UniProt P35236); assay: HePTP (PTPN7) phosphatase inhibitor potency, SAR follow-up, biochemical, set 2 (AID 449736); format: functional
T4 sequence (P35236 whole entry): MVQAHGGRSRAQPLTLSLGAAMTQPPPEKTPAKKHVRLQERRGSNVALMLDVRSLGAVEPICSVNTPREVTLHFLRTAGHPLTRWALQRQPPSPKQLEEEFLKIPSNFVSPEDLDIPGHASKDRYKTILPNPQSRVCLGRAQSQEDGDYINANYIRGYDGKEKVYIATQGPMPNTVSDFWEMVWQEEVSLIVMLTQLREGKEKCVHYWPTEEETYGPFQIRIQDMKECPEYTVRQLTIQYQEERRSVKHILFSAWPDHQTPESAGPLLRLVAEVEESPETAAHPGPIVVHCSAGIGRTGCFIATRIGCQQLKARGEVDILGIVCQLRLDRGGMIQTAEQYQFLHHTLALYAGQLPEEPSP

[19] = target: T5, Dual specificity protein phosphatase 3 (Homo sapiens, UniProt P51452); assay: SAR VHR1 Fluorescent Assay for In Vitro dose response studies. [Related pubchem assays (depositor defined):AID1654, AID1661, AID1878, AID1992, AID2004, AID2070, AID2085]; format: functional
T5 sequence (P51452 whole entry): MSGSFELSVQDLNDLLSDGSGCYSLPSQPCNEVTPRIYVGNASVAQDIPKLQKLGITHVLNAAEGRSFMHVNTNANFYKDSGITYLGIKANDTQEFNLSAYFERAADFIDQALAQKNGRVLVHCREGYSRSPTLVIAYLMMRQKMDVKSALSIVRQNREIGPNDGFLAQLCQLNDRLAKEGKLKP

[20] = target: DNA dC->dU-editing enzyme APOBEC-3G (Homo sapiens, UniProt Q9HC16); assay: Dose Response confirmation of small molecule APOBEC3G DNA Deaminase Inhibitors via a fluorescence-based single-stranded DNA deaminase assay. [Related pubchem assays (depositor defined):AID493012, AID493028]; format: functional
Sequence of DNA dC->dU-editing enzyme APOBEC-3G (Q9HC16 whole entry): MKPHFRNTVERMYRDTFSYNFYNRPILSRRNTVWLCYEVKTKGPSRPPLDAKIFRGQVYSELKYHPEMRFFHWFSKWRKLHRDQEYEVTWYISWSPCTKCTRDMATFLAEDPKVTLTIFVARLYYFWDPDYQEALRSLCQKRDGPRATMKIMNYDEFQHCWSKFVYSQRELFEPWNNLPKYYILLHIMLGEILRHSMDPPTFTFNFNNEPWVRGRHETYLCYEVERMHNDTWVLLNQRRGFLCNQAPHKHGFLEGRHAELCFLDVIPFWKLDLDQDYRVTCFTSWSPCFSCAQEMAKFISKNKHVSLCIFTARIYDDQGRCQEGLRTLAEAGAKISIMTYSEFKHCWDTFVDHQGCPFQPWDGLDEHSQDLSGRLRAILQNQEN

[21] = target: T4, Tyrosine-protein phosphatase non-receptor type 7; assay: SAR analysis of chemical inhibitors of HePTP using a Fluorescent assay - Set 2. [Related pubchem assays (depositor defined):AID1059, AID1077, AID1661, AID2085, AID521]; format: functional
[22] = target: T4, Tyrosine-protein phosphatase non-receptor type 7; assay: redox-dependent HePTP inhibition, mechanism study, biochemical, fluorescence (AID 2068); format: functional
[23] = target: T5, Dual specificity protein phosphatase 3; assay: SAR VHR1 absorbance Assay for In Vitro dose response studies. [Related pubchem assays (depositor defined):AID1654, AID1661, AID1878, AID1992, AID2004]
[24] = target: T5, Dual specificity protein phosphatase 3; assay: SAR VHR1 Fluorescent Assay for In Vitro dose response studies Set 2. [Related pubchem assays (depositor defined):AID1654, AID1661, AID1878]; format: functional
[25] = target: T6, Dual specificity protein phosphatase 6 (Rattus norvegicus, UniProt Q64346); format: functional
T6 sequence (Q64346 whole entry): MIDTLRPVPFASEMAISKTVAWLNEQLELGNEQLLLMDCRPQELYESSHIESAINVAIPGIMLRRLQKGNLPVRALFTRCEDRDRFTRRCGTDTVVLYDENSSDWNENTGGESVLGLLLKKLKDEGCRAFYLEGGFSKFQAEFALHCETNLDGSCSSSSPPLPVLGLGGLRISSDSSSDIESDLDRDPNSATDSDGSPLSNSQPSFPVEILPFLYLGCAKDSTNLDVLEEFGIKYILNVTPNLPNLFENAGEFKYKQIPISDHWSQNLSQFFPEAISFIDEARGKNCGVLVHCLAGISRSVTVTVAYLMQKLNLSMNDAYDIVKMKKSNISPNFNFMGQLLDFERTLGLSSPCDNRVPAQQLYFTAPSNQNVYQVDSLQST

[26] = target: T6, Dual specificity protein phosphatase 6; assay: SAR analysis of inhibitors of MKP-3 - Set 2. [Related pubchem assays (depositor defined):AID1055, AID1661, AID425, AID553, AID566]; format: functional
[27] = CEM21 lymphoblast cell cytotoxicity, dose response, cytotoxicity control for viral fusion inhibitor project, CellTiter-Glo luminescence, cherry-picked (AID 652042); format: functional, cell-based;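 also: potency for signal decrease meaning cytotoxicity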
[28] = ZM109 Env clade C HIV-1 fusion inhibitors, dose response, HeLa effector, CEM target cells, luciferase, cherry-pick (AID 652058); format: functional, cell-based
[29] = off-target signal loss in HeLa-CEM21 co-culture – HeLa F-luc CTL cells, cherry-picked, counter-screen for HIV-1 Env fusion inhibitor project, dose response (AID 652040); format: functional, cell-based;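 also: potency for signal decrease marking cytotoxic or nonspecific inhibition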
[30] = inhibitors of clade B AD8 Env fusion, dose response, cell-based, cherry-pick (AID 652062); format: functional;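 also: luciferase signal from cell-cell fusion driven by HIV-1 clade B AD8 Env; potency is for inhibitors of fusion seen as a drop in luminescence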
[31] = inhibitors of HIV Env-driven cell fusion, dose response, cherry-pick (AID 652057); format: functional, cell-based
[32] = target: T7, Polyadenylate-binding protein 1 (Homo sapiens, UniProt P11940); assay: PABP1 MLLE–PAM2 binding inhibitor potency, dose response, biochemical, fluorescence polarization, FITC-PAM2 peptide (AID 602259); format: functional; conditions: read-out: IC50_Mean
T7 sequence (P11940 whole entry): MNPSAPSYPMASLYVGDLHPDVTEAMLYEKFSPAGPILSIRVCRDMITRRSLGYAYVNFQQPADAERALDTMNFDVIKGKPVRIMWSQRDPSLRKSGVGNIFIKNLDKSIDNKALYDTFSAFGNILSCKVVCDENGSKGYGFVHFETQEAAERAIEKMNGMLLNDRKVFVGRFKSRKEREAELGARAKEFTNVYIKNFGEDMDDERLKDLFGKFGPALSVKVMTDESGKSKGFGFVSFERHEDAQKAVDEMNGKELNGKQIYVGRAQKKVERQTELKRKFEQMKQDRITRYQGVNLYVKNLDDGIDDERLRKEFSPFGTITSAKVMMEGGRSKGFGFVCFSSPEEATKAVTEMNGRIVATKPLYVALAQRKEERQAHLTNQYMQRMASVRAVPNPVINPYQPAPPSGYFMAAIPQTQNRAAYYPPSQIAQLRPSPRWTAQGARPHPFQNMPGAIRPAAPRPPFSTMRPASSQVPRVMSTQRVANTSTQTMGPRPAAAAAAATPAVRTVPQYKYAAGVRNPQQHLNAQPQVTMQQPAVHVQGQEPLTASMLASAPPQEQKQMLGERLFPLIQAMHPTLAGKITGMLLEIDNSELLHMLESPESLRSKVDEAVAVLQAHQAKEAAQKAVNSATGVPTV

[33] = target: T7, Polyadenylate-binding protein 1; assay: PABP1 MLLE–PAM2 interaction inhibitors, dose response, miRNA deadenylation inhibitor project, biochemical, fluorescence polarization, Cy5-PAM2 peptide, secondary (AID 602260); format: functional; conditions: read-out: IC50_Mean

SMILES: c1ccc(-c2csc3ncnc(NCc4ccccn4)c23)cc1
- IC50 [1]: 7.16 µM (active)
- IC50 [2]: 16.3 µM (active)
- IC50 [3]: 11.5 µM (active)
- EC50 [4]: 3.17 µM (active)
- IC50 [5]: 4.23 µM (active)
- IC50 [6]: 3.2 µM (active)
- IC50 [7]: 6.34 µM (active)

SMILES: Cc1cc(NC(=O)CSc2nc(-c3ccccc3Cl)nc3c2c(=O)n(C)c(=O)n3C)no1
- EC50 [8]: > 99 µM (inactive)
- EC50 [9]: > 99 µM (inactive)

SMILES: COC(=O)CSc1nc2ccc(C)cc2cc1C#N
- EC50 [8]: > 99 µM (inactive)
- EC50 [9]: > 99 µM (inactive)

SMILES: Cc1ccc(NC(=O)c2ccccc2NS(=O)(=O)c2ccc(Cl)s2)cc1
- EC50 [10]: 20.5 µM (active)
- EC50 [11]: > 180 µM (inactive)
- AC50 [12]: 4.46 µM (active)
- EC50 [13]: 0.215 µM (active)
- EC50 [14]: 7.91 µM (active)

SMILES: CCSc1nnc(NC(=O)C2CCCN(S(=O)(=O)c3c[nH]cn3)C2)s1 (stereo unspecified)
- IC50 [15]: > 67.5 µM (inactive)
- IC50 [16]: > 67.5 µM (inactive)

SMILES: Cc1cccc(-n2c(N)c(C(=O)N3CCN(C)CC3)sc2=S)c1
- IC50 [17]: > 100 µM (inactive)
- IC50 [18]: 3.6 µM (active) and 8.47 µM (active) and > 100 µM (inactive)
- IC50 [19]: > 99 µM (inactive)
- IC50 [20]: 12.2 µM (active)
- IC50 [21]: 4.7 µM (active)
- IC50 [22]: 0.108 µM (active)
- IC50 [23]: 3.32 µM (active)
- IC50 [24]: 0.96 µM (active)
- IC50 [25]: > 99 µM (inactive)
- IC50 [26]: > 100 µM (inactive)

SMILES: C(=C\c1ccccc1)/CN1CCN(c2ncnc3c2oc2ccccc23)CC1
- EC50 [10]: > 160 µM (inconclusive)
- EC50 [11]: > 180 µM (inactive)
- AC50 [27]: 65.4 µM (active)
- AC50 [28]: 0.57 µM (active)
- AC50 [29]: 25.9 µM (active)
- EC50 [13]: 0.041 µM (active)
- AC50 [30]: 9.31 µM (active)
- AC50 [31]: 1.98 µM (active)
- EC50 [14]: > 160 µM (inactive)

SMILES: Oc1c(/C=N/Cc2ccccc2)sc2ccccc12
- IC50 [15]: > 67.5 µM (inactive)
- IC50 [32]: > 66 µM (inactive)
- IC50 [16]: > 22.5 µM (inactive)
- IC50 [33]: > 66 µM (inactive)
